# Measured values taken from patent US7232805B2, “Cobalamin conjugates for anti-tumor therapy” (Inflabloc Pharmaceuticals, Inc., priority 2003, dated 2007).
# Key:
# [1] = test system: MX-1 human breast carcinoma xenograft; experiment: tumor growth delay, MX-1 xenograft, single-cycle dosing (Example 3); conditions: 3 mg/kg/day x 5 days intravenous
# Procedure: Test articles were administered on the day of pair matching, Day 1.
# The upper limit of acceptability is 20% weight loss.
# [2] = test system: MX-1 human breast carcinoma xenograft; experiment: tumor growth delay, MX-1 xenograft, two-cycle dosing (Example 11); conditions: 2-cycle
# Procedure: The following procedure was used to investigate the tumor growth delay effects of the conjugate, particularly for the treatment of MX-1 human breast carcinoma xenograft in athymic mice using a two-cycle dosing regimen. Female nude Harlan mice are implanted subcutaneously with 1 mm^3 MX 1 solid tumor fragments in the flank. During the pre-dose phase of implantation and growth, tumors are initially monitored twice weekly, and then daily as the neoplasms approach the desired size of 80-120 mg. When the majority of tumors reached the targeted weight range (80-120 mg), mice are pair-matched into 5 treatment groups of 10 mice each. For purposes of this illustrationon the effect of 2-cycles of treatment, data from 3 groups are shown: no treatment, 3 mg/kg/day (days 1-5, 21-25) intravenous Doxorubicin and 24 mg/kg/day (days 1-5, 21-25) intravenous bioconjugate. Test article administration began on this day, referred to as Day 1. The tumor growth delay endpoint is reached when the tumor on the mouse reaches 1.5 gm weight estimated by the formula: Tumor weight (mg)=w^2×l/2×1 mg/mm^3, where w=width (mm) and l=length (mm) of the tumor. The median time to endpoint is calculated for each treatment group.
# [3] = systemic toxicity / MTD of free doxorubicin versus conjugate on a molar basis (separate study); assay type: in vivo, mice
structure (smiles),measurement,setting,value
"COc1cccc2c1C(=O)c1c(O)c3c(c(O)c1C2=O)C[C@@](O)(C(=O)CO)C[C@@H]3O[C@H]1C[C@H](N)[C@H](O)[C@H](C)O1 [Doxorubicin, doxorubicin, reference compound]","median delay in tumor growth (median time to endpoint, tumor 1.5 gm)",[1],39.5 days
same,treatment or nontreatment related deaths,[1],no other treatment or nontreatment related deaths
same,"long-term, tumor-free survivors",[1]; 10 mice,"no long-term, tumor-free survivors"
same,partial or complete tumor regressions,[1]; 10 mice,no partial or complete tumor regressions
same,time to endpoint longer than control mice,"[2]; 3 mg/kg/day (days 1-5, 21-25) intravenous",at least 44 days
same,treatment or nontreatment related deaths,[2]; 3 mg/kg/day intravenous,no treatment or nontreatment related deaths
same,"long-term, tumor-free survivors","[2]; 3 mg/kg/day intravenous, at 71 days",significant percentage
same,lethality at the same high molar dose,[3]; free doxorubicin at the same high molar dose as the conjugate,mice were killed by the free doxorubicin
same,MTD lower than for the conjugate on a molar basis,[3]; separate study,at least 2.3 times
